One assay concerns TGF-β. The assay can be described thus: Reverse transcription polymerase chain reaction on injured tissue of corneal chemical burn model, TGF-β. Format: in vivo, rat. The following applies: third day and seventh day after keratoconjunctival chemical injury. As for the experimental part: Three days, and 1, 2, 4, and 8 weeks after injuring, corneal opacity and neoangiogenesis level were assessed in consideration of images of anterior ocular segment, and on the third day and the seventh day, the respective conjunctiva damaged parts were collected and then subjected to a reverse transcription polymerase chain reaction to assay expression of IL-1a, TGF-β, SDF-1, and caspase-3.
Tissues obtained from chronic intraocular pressure increase model and corneal chemical burn model were frozen, and then cut into small parts by using a fine knife. The tissue parts were treated with 1 ml of TRI reagent (Molecular Research Center, Inc.) and then, tissue and cell were lysed by homogenizer. The respective implication cDNA […] 0.2 mM dNTP, 10×buffer, 10 pmols primer, and 0.2 U Taq polymerase were mixed to obtain a volume of 20 μl, and then, PCR thermal cycler (a machine for PCR) was used for reaction for 5 minutes at 95° C., 40 second at 94° C., 40 seconds at 48 to 64° C., 40 seconds (35 cycles) at 72° C., and 10 minutes at 72° C. The amplified polymerase chain reaction product was identified by 1% agarose gel electrophoresis. β actin was used as a positive control for the polymerase chain reaction, and relative expression morphs of a target gene with respect to β actin expression were compared. […]

Assay [1] concerns Schlemm's canal peripheral tissue in anterior chamber angle. Nature of the assay: H&E staining of Schlemm's canal peripheral tissue in anterior chamber angle of glaucoma model after instillation. Format: in vivo, rat. Conditions: after instillation compared to before instillation.

The results in this text go back to US9855320B2, “Angiogenin for treatment of glaucoma” (CHUNG-ANG UNIVERSITY INDUSTRY-ACADEMIC COOPERATION …, priority 2011, dated 2018).

As to “angiogenin: recombinant human angiogenin (R&D systems); 14.4 kDa single chain protein of 123 amino acids, a ribonuclease inducing angiogenesis”, the “TGF-β expression compared to the control” value with TGF-β was “less expressed”. Also, the “diameter and intercellular interval of Schlemm's canal” value in assay [1] is reported as “increased”.
